# According to patent publication US20160170302A1, “NOVEL COMPOUND” (TOKYO OHKA KOGYO CO., LTD., priority 2011, published 2016):
# Assay: Solubility to organic solvents PM and AN
# Settings: for Solubility to Solvent AN: solvent: cyclohexanone (AN); for Solubility to Solvent PM: solvent: propylene glycol monomethyl ether acetate (PM)
Structure (SMILES),Solubility to Solvent AN [mass %],Solubility to Solvent PM [mass %]
"CCO[Si](C)(CCCN)OCC [Comparative Compound 6, reference compound]",>50,>50
CCN(CC)C(=O)/C=C/c1ccc(OC)cc1 [Compound 1],>50,>50
COc1ccc(/C=C/C(=O)Nc2ccccc2)cc1 [Compound 2],>50,>50
COc1ccc(/C=C/C(=O)n2ccnc2)cc1 [Compound 3],>50,>50
CCN(CC)C(=O)/C=C/c1ccc(OC)cc1[N+](=O)[O-] [Compound 9],>50,>50
CCN(CC)C(=O)/C=C/c1ccc(OC)c([N+](=O)[O-])c1 [Compound 10],>50,>50
CCN(CC)C(=O)/C(C)=C/c1ccc(OC)cc1[N+](=O)[O-] [Compound 11],>50,>50
CCN(CC)C(=O)/C(C)=C/c1ccc(OC)c([N+](=O)[O-])c1 [Compound 12],>50,>50
COc1ccc(/C=C/C(=O)N2CCCCC2)c([N+](=O)[O-])c1 [Compound 13],>50,>50
COc1ccc(/C=C/C(=O)N2CCCCC2)cc1[N+](=O)[O-] [Compound 14],>50,>50

# Continued, values first:
Solubility to Solvent AN [mass %],Solubility to Solvent PM [mass %],Structure (SMILES)
>50,>50,COc1ccc(/C=C/C(=O)n2ccnc2)cc1[N+](=O)[O-] [Compound 6]
>50,>50,COc1ccc(/C=C(\C)C(=O)N2CCCCC2)c([N+](=O)[O-])c1 [Compound 15]
>50,>50,COc1ccc(/C=C(\C)C(=O)N2CCCCC2)cc1[N+](=O)[O-] [Compound 16]
>50,>50,COc1ccc(/C=C/C(=O)N2CCCCC2)cc1 [Compound 17]
>50,>50,COc1ccc(/C=C(\C)C(=O)n2ccnc2)cc1 [Compound 18]
>50,>50,CCN(CC)C(=O)/C(C)=C/c1ccc(OC)cc1 [Compound 19]
>50,>50,COc1ccc(/C=C(\C)C(=O)Nc2ccccc2)cc1 [Compound 20]
